Where a name gives a salt, the structure may show the parent alone. Read-outs that look alike come from different tables or passages of the source.
How the values were obtained:
rat 5-HT2B receptor = rat 5-HT2B receptor (Rattus norvegicus, UniProt P30994); assay: biochemical; type: binding;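 note: displacement of [3H]5-HT from membranes of suspension cells carrying cloned rat 5-HT2B receptor, incubated 15 min at 37 °C or 2 h at 0 °C, filter-bound radioactivity counted by scintillation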
Human 5-HT2B = molecular target: T1, Human 5-HT2B (Homo sapiens, UniProt P41595); assay: [3H]Serotonin radioligand binding, human 5-HT2B;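 note: competition of tritiated serotonin binding to cell membranes, bound radioactivity on filters counted by liquid scintillation, IC50 from logistic fits converted to Ki with the Cheng-Prusoff equation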
T1 construct: expressed in transfected cells
T1 sequence (P41595 whole entry): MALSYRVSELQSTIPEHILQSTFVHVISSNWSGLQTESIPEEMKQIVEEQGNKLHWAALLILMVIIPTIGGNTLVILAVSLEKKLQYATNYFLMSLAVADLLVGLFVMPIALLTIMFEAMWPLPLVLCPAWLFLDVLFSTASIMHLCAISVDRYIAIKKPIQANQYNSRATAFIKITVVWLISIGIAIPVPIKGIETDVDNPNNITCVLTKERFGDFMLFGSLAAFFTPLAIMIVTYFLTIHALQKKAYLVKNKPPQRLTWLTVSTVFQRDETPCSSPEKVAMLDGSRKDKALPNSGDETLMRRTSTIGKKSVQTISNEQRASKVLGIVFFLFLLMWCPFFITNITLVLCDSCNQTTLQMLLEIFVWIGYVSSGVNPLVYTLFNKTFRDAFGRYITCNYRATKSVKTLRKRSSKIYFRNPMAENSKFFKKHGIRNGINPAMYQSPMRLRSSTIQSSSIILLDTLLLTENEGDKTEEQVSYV

Human 5-HT2A = Human 5-HT2A (Homo sapiens, UniProt P28223); assay: [125I]DOI radioligand binding, human 5-HT2A
Chain of Human 5-HT2A (P28223 whole entry): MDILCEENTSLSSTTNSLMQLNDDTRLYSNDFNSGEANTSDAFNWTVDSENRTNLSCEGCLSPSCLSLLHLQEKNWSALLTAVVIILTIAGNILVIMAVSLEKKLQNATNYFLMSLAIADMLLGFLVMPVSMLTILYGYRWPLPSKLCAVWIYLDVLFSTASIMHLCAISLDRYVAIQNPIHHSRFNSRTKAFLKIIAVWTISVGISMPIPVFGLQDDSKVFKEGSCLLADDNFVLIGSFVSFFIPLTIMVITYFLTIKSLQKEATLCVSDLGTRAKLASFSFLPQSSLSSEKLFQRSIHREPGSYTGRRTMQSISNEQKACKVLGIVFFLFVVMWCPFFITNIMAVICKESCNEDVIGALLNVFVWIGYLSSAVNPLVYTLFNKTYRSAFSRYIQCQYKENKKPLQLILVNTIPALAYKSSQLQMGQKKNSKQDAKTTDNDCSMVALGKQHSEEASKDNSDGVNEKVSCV

[1] = molecular target: 5-HT2B receptor (rat stomach fundus) (Rattus norvegicus, UniProt P30994); details: rat stomach fundus, vs serotonin, ± standard error; for Kb: read-out: 5-HT2B (Fundus) -log KB (converted);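 for all read-outs here: isometric contraction of isolated male Wistar rat stomach fundus strips, serotonin concentration-response curves after antagonist incubation, KB from dose ratio of agonist potency versus control curve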
Chain of 5-HT2B receptor (rat stomach fundus) (P30994 whole entry): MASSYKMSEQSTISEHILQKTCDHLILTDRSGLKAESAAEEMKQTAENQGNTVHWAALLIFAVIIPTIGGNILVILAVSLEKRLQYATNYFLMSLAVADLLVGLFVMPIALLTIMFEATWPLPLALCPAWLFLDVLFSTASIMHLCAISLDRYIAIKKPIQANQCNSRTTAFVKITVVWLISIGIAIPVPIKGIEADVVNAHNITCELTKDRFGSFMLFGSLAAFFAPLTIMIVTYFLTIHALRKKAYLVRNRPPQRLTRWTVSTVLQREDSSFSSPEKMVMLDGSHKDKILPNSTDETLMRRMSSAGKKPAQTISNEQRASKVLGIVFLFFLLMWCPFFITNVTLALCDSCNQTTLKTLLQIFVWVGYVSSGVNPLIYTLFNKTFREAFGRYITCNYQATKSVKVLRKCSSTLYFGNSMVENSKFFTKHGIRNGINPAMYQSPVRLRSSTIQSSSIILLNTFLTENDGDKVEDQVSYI

[2] = [3H]Serotonin, 5-HT2B cells, AVG, read-out: Ki Rat 5-HT2B
[3] = [3H]Serotonin, 5-HT2B cells, AVG, read-out: Ki Human 5-HT2B

Chain of rat 5-HT2B receptor (P30994 whole entry): as above

| SMILES | Ki (Human 5-HT2B; [3]) | Ki (Human 5-HT2A) | Kb [1] | also measured |
| --- | --- | --- | --- | --- |
| COc1ccc(C(C)C2NCCc3c2[nH]c2ccc(C)cc32)cc1OC (single isomer, unassigned) | 5.55 nM | 373 nM | – | Ki (rat 5-HT2B receptor; [2]): 30.1 nM |
| Cc1ccc2[nH]c3c(c2c1)CCNC3Cc1ccc(N(C)C)c2ccccc12 (centres unmarked) | 1.64 nM | 0.83 nM | – | Ki (rat 5-HT2B receptor; [2]): 5.02 nM |
| COc1ccc(CC2NCCc3c2[nH]c2ccc(C)cc32)cc1O (centres unmarked) | 1.47 nM | 54.9 nM | – | – |
| CCCN(CCC)C1CCc2cccc(-c3ccno3)c2C1 (centres unmarked) | 509 nM | – | – | Ki (Human 5-HT2A; read-out: Ki Human 5-HT2A, [125I]DOI, AVG): 354 nM |
| NCCc1c[nH]c2ccc(C(N)=O)cc12 | 128 nM | 120 nM | – | Ki (rat 5-HT2B receptor; [2]): 147 nM |
| COc1ccc(CC2NCCc3c2[nH]c2ccc(C)cc32)c(Br)c1OC (centres unmarked) | – | 12.2 nM | – | Ki (Human 5-HT2B): 0.37 nM |
| COc1ccc(CC2NCCc3c2[nH]c2ccc(C)cc32)cc1OC (centres unmarked) [drawing 144] | – | 28.1 nM | – | – |
| CC(C)n1cc2c3c(cccc31)C1CC(C(=O)NC3CCCC3O)CN(C)C1C2 (centres unmarked) | – | – | – | Ki (Human 5-HT2B; read-out: Ki Human 5-HT2B, [3H]Serotonin, 5-HT2B cells, AVG): 2.24 nM; Ki (Human 5-HT2A; [125I]DOI, AVG, read-out: Ki Human 5-HT2A): 21.9 nM |
| COc1ccc(CC2NCCc3c2[nH]c2c(Cl)c(C)ccc32)cc1OC (centres unmarked) | 0.84 nM | 0.93 nM | – | Ki (rat 5-HT2B receptor; [2]): 3.19 nM |
| CCc1ccc2[nH]c3c(c2c1)CCNC3Cc1cccc2ccccc12 (centres unmarked) | 2.08 nM | 6.71 nM | – | – |
| CN1CC(C(=O)NC2CCCC2O)CC2c3cccc4[nH]cc(c34)CC21 (centres unmarked) | – | – | – | Ki (Human 5-HT2B): 7.87 nM |
| CC(N)Cc1c[nH]c2ccc(O)cc12 (centres unmarked) | – | – | – | Ki (Human 5-HT2B): 11.9 nM |
| Cc1ccc2[nH]c3c(c2c1)CCNC3C(C)c1cccc2ccccc12 (racemic) [Example 49, (±) 6-methyl-1-(1-naphthalenyl-1-ethyl)-1,2,3,4-tetrahydro-9H-pyrido [3,4-b]indole (Z) 2-butenedioate] | – | – | ~0.0389 nM | Ki (rat 5-HT2B receptor; Radioligand assay, Table III, read-out: pKi (converted)): 3.98 nM |
| CC(C)n1cc2c3c(cccc31)C1CC(C(=O)NCCN3CCN(c4ccccc4)CC3)CN(C)C1C2 (centres unmarked) | – | – | – | Ki (rat 5-HT2B receptor; Ki Rat 5-HT2B, [3H]Serotonin, 5-HT2B cells, AVG): 11.9 nM; Ki (Human 5-HT2A; Ki Human 5-HT2A, [125I]DOI, AVG): 32.7 nM |
| COc1ccc(CC2NCCc3c2[nH]c2ccc(C(C)C)cc32)cc1OC (centres unmarked) [Example 13, 6-(1-methylethyl)-1,2,3,4-tetrahydro-1-[(3,4-dimethoxyphenyl)methyl]-9H-pyrido[3,4b]indole] | – | – | 3.16 nM | – |
| COc1ccc(CC2NCCc3c2[nH]c2ccc(C)cc32)cc1F (centres unmarked) [Example 34, 6-methyl-1-[(3-fluoro-4-methoxyphenyl)-methyl]-1,2,3,4-tetrahydro-9H-pyrido[3,4-b]indole hydrochloride] | – | – | 0.38 nM | – |
| COc1ccc(C(C)C2NCCc3c2[nH]c2ccc(C(C)C)cc32)cc1OC (centres unmarked) | 3.46 nM | 201 nM | – | – |
| COc1ccc(CC2NCCc3c2[nH]c2c(C)cccc32)cc1OC (centres unmarked) [Example 1, 8-methyl-1-[(3,4-dimethoxyphenyl)methyl]-1,2,3,4-tetrahydro-9H-pyrido[3,4-b]indole] | – | – | 1 nM | – |
| CCCN(CCC)[C@H]1CCc2cccc(-c3ccon3)c2C1 | 257 nM | 5690 nM | – | – |
| Brc1ccc2[nH]c3c(c2c1)CCNC3Cc1cccc2ccccc12 (racemic) [Example 55, (±) 6-bromo-1-(1-naphthalenylmethyl)-1,2,3,4-tetrahydro-9H-pyrido [3,4-b]indole (Z)-2-butenedioate] | – | – | 1.12 nM | – |

| SMILES | Ki (Human 5-HT2B; [3]) | Ki (Human 5-HT2A) | Kb [1] | also measured |
| --- | --- | --- | --- | --- |
| Cc1ccc2[nH]c3c(c2c1)CCN[C@H]3Cc1cccc2ccccc12 [Example 64, (-)-(S)-6-methyl-1,2,3,4-tetrahydro-1-(1-naphthalenylmethyl)-9H-pyrido [3,4-b] indole hydrochloride] | – | – | 0.186 nM | – |
| CC(C)(C)c1ccc2[nH]c3c(c2c1)CCNC3Cc1cccc2ccccc12 (racemic) [Example 61, (+/-) 6-(1,1-dimethylethyl)-1,2,3,4-tetrahydro-1-(1-naphthalenylmethyl)-9H-pyrido [3,4b] indole (Z)-2-butenedioate] | – | – | 3.63 nM | – |
| c1ccc2c(N3CCNCC3)cccc2c1 | – | – | – | Ki (rat 5-HT2B receptor; [2]): 4.5 nM; Ki (Human 5-HT2B): 3.79 nM |
| CC(C)c1ccc2[nH]c3c(c2c1)CCNC3C(C)c1cccc2ccccc12 (racemic) [Example 50, hydrochloride] | – | – | 3.98 nM | – |
| COc1ccc(CC2c3[nH]c4ccc(C(C)C)cc4c3CCN2C)cc1OC (centres unmarked) [Example 45, 2-methyl-6-(1-methylethyl)-1,2,3,4-tetrahydro-1-[(3,4-dimethoxyphenyl)methyl]-9H-pyrido-[3,4b]indole maleate] | – | – | – | 5-HT2B (Fundus) -log KB [1]: 8.14 ± 0.32 |
| CCCNC1CCc2cccc(C(C)=O)c2C1 (centres unmarked) | 1790 nM | – | – | – |
| CC(C)c1ccc2[nH]c3c(c2c1)CCNC3Cc1cccc2ccccc12 (racemic) [Example 62, (+/-) 6-(1-methylethyl)-1,2,3,4-tetrahydro-1-(1-naphthalenylmethyl)-9H-pyrido [3,4b] indole (Z)-2-butenedioate] | – | – | 2.63 nM | – |
| COc1ccc(CC2NCCc3c2[nH]c2ccc(C4CCCCC4)cc32)cc1OC (centres unmarked) [Example 11, 6-cyclohexyl-1-[(3,4-dimethoxyphenyl)-methyl]-1,2,3,4-tetrahydro-9H-pyrido[3,4-b]indole hydrochloride] | – | – | > 30.2 nM | – |
| COc1c(O)ccc(CC2NCCc3c2[nH]c2ccc(C)cc32)c1Cl (centres unmarked) [Example 37, 6-methyl-1-[(2-chloro-3-methoxy-4-hydroxyphenyl)methyl]-1,2,3,4-tetrahydro-9H-pyrido[3,4-b]-indole hydrochloride] | – | – | 0.646 nM | – |
| COc1ccc(CC2NCCc3c2[nH]c2c(Br)cc(C)cc32)cc1OC (centres unmarked) [Example 4, 6-methyl-8-bromo-1-[(3,4-dimethoxyphenyl)-methyl]-1,2,3,4-tetrahydro-9H-pyrido[3,4-b]indole hydrochloride] | – | – | 1.2 nM | – |
| COc1ccc(CC2NCCc3c2[nH]c2c3ccc3ccccc32)cc1OC (centres unmarked) [Example 10, 7,8,9,10-tetrahydro-10-[(3,4-dimethoxyphenyl)methyl]-11H-benzo[g]pyrido[3,4-b]indole] | – | – | 0.603 nM | – |
| Cc1ccc2c3c([nH]c2c1Br)C(Cc1cccc2ccccc12)NCC3 (racemic) [Example 56, (±) 7-methyl-8-bromo-1-(1-naphthalenylmethyl)-1,2,3,4-tetrahydro-9H-pyrido [3,4-b]indole hydrochloride] | – | – | ~29.5 nM | – |
| Cc1ccc2[nH]c3c(c2c1)CCN(C)C3Cc1cccc2ccccc12 (racemic) [Example 58, (+/-) 2,6-dimethyl-1-(1-naphthalenylmethyl)-1,2,3,4-tetrahydro-9H-pyrido [3,4-b] indole hydrochloride] | – | – | > 30.2 nM | – |
| CCCN(CCC)C1CCc2cccc(C(=O)C(C)(C)C)c2C1 (single isomer, unassigned) | 4750 nM | 2230 nM | – | – |
| COc1cc(CC2NCCc3c2[nH]c2ccc(C)cc32)cc(N)c1OC (centres unmarked) [Example 30, 6-methyl-1-[(3,4-dimethoxy-5-amino-phenyl)-methyl]-1,2,3,4-tetrahydro-9H-pyrido[3,4-b]indole dihydrochloride] | – | – | 1.29 nM | – |
| COc1ccc(CC2NCCc3c2[nH]c2ccc(C)c(F)c32)cc1OC (centres unmarked) [Example 9, 5-fluoro-6-methyl-1-[(3,4-dimethoxyphenyl)-methyl]-1,2,3,4-tetrahydro-9H-pyrido[3,4-b]indole] | – | – | 0.501 nM | – |
| CCCNC1CCc2cccc(-c3ccno3)c2C1 (centres unmarked) | 1020 nM | 6030 nM | – | – |
| COc1ccc(CC2NCCc3c2[nH]c2c(C)cccc32)cc1OC (centres unmarked) [drawing 182] | 1.69 nM | 49.7 nM | – | – |
| CCCN(CCC)[C@@H]1CCc2cccc(-c3ccon3)c2C1 | 784 nM | 127 nM | – | – |
| COc1ccc(CC2NCCc3c2[nH]c2c(Br)cc(Br)cc32)cc1OC (centres unmarked) [Example 3, 6,8-dibromo-1-[(3,4-dimethoxyphenyl)methyl]-1,2,3,4-tetrahydro-9H-pyrido[3,4-b]indole] | – | – | 1.66 nM | – |

Source: patent publication US5688807A, “Method for treating 5HT2B receptor related conditions” (Eli Lilly and Company, priority 1995, dated 1997)
